Results: US20120316342A1, “THERAPEUTIC AGENT FOR HEPATITIS C” (priority 2010, published 2012)
Entries after “also recorded” stand apart in the source; their conditions may differ.

Tests used:
Assay type in all cases: cell-based
[1] = system: NNC #2 (full-length replicon) cells; test: Anti-HCV activity using full-length replicon cells (HCV genomic RNA, real-time RT-PCR); settings: FIGS. 3 to 6
Procedure: (§1) The 70% confluent #50-1 (subgenomic replion) cells or NNC #2 (full-length replicon) cells (Ishii et al., J. Virol., 2006, vol. 80, pp. 4510-4520) were dispersed in a culture bottle with the aid of trypsin, and the resulting dispersion was resuspended in a high-glucose Dulbecco's modified Eagle medium (DMEM) containing 10% FCS and 1 mg/ml G418 (Sigma) (see FIGS. 1 and 2). The cell suspension adjusted at 5×10^4 cells/ml with the use thereof was added to wells of a 96-well culture plate at 100 μl/well (the final cell density in each well: […]), and culture was conducted at 37° C. Supernatants of culture media were removed from wells of the plate on the following day, 200 μl each of the solutions of test compounds appropriately diluted with a G418-free culture solution were added, and culture was further continued. Samples were prepared from cells in each well 3 days later with the use of the TaqMan® Gene Expression Cell-to-CT® (Applied Biosystems). Reverse transcription was carried out in accordance with the protocols for the ABI 7500 PCR systems (Applied Biosystems) at 37° C. for 60 minutes, 95° C. for 5 minutes, and retained at 4° C. Real-time PCR was carried out in accordance with the protocols for the ABI 7500 real-time PCR systems (Applied Biosystems) at 50° C. for 2 minutes, 95° C. for 10 minutes, 40 cycles at 95° C. for 15 seconds, and 60° C. for 1 minute.
(§2) In accordance with the method mentioned above, the level of the HCV genomic RNA and, as the internal standard, the level of mRNA of glyceraldehyde-3-phosphate dehydrogenase (GAPDH) (a house keeping gene of the host cells) were assayed, and a percentage (%) relative to the level of RNA of a control group to which the test compound was not administered was determined. The dose-response relationship of the test compound was analyzed based on the measured level of the HCV genomic RNA to determine EC50, and the dose-response relationship of the test compound was analyzed based on the measured level of GAPDH RNA to determine CC50. The term “EC50” and “CC50” used herein refers to 50% effective concentration (μM) and 50% cytotoxic concentration (μM), respectively.

[2] = system: Subgenomic HCV RNA replicon cells (LucNeo#2); test: Cytotoxicity (cell survival rate) by tetrazolium staining in luciferase replicon cells; settings: for CC50: LucNeo#2 subgenomic replicon cells
Procedure: A tetrazolium staining solution (10 μl, Seikagaku Corporation, Tokyo) was added to each well in order to examine cytotoxicity (a cell survival rate). After the cells were incubated for 1 hour, the absorbance at the characteristic absorption wavelength (450 nm) was measured with the use of a microplate reader.
(§3) Based on the luciferase assay results, the HCV genomic RNA level was measured, and a percentage (%) relative to the level of RNA of a control group to which the test compound was not administered was determined. Based on the results of tetrazolium staining, cell survival rates (%) of the group to which the test compound had been administered and of a control group were determined. The dose-response relationship of the test compound was analyzed based on the results of quantitative luciferase assays to determine EC50(μM), and the dose-response relationship of the test compound was analyzed based on the results of tetrazolium staining to determine CC50.

[3] = system: Subgenomic HCV RNA replicon cells (LucNeo#2) having a luciferase gene; test: Anti-HCV activity using replicon cells (luciferase assay); settings: luciferase assay; for EC50: LucNeo#2 subgenomic replicon cells, 3 days, read-out: EC50; for anti-HCV activity (in words): Table 2, FIGS. 13 to 15
Procedure: Subgenomic HCV RNA replicon cells (LucNeo#2, Goto et al., Biochem. Biophys. Res. Commun., 2006, vol. 343, pp. 879-884) having a luciferase gene were suspended in a Dulbecco's modified Eagle medium (DMEM) containing 10% FBS and 1 mg/ml G418 (Sigma). The cells were incubated for 24 hours and then cultured in G418-free fresh media each containing test compounds at various concentrations for 3 days. In order to perform luciferase assays, the cells were washed with PBS and treated with a lysate for 10 minutes with intermittent agitation. A cell lysate (25 μl) was transferred to a white microtiter plate. Luciferase assay reagents (100 μl, Promega, Tokyo) were added to each well and the luciferase activity was measured with a luminometer.
as §3

[4] = system: #50-1 (subgenomic replion) cells; test: Anti-HCV activity using subgenomic replicon cells (HCV genomic RNA, real-time RT-PCR); settings: concentration of 10 μM, relative to control group without test compound
Procedure: as §1, §2

SMILES	CC50 [2] [µM]	EC50 [3] [µM]	other results
O=c1c2ccccc2c2cc(C(O)(C(F)(F)F)C(F)(F)F)ccc2n1Cc1ccccc1 [AA-04, 2-(1′,1′,1′,3′,3′,3′-hexafluoro-2′-hydroxypropan-2′-yl)-5-benzylphenanthridin-6(5H)-one]			anti-HCV activity (in words) [1]: high degree of anti-HCV activity
CCCCCCn1c(=O)c2ccccc2c2cc(C(O)(C(F)(F)F)C(F)(F)F)ccc21 [AA-25, 2-(1′,1′,1′,3′,3′,3′-hexafluoro-2′-hydroxypropan-2′-yl)-5-hexylphenanthridin-6(5H)-one]			anti-HCV activity (in words) [1]: high degree of anti-HCV activity
CCCCn1c(=O)c2ccccc2c2cc(C(O)(C(F)(F)F)C(F)(F)F)c3c(c21)OCO3 [HA-718, 4-butyl-1′-(1′,1′,1′,3′,3′,3′-hexafluoro-2′-hydroxypropan-2′-yl)-[1,3]dioxolo[4,5-c]phenanthridin-5(4H)-one]	24.2	0.29	
CCCCn1c(=O)c2cc(OC)ccc2c2cc(C(O)(C(F)(F)F)C(F)(F)F)c3c(c21)OCO3 [HA-719, 4-butyl-11-(1′,1′,1′,3′,3′,3′-hexafluoro-2′-hydroxypropan-2′-yl)-7-methoxy-[1,3]dioxolo[4,5-c]phenanthridin-5(4H)-one]	6.4	0.05	cytotoxicity (in words) ([2]; Table 2): high degree of cytotoxicity; anti-HCV activity (in words) [3]: very high; also recorded: high degree of anti-HCV activity
CCCCn1c(=O)c2ccccc2c2cc(C(O)(C(F)(F)F)C(F)(F)F)c(OC)c(OC)c21 [HA-726, 5-butyl-2-(1′,1′,1′,3′,3′,3′-hexafluoro-2′-hydroxypropan-2′-yl)-3,4-dimethoxy-phenanthridin-6(5H)-one]	10.4	2.6	
CCCCn1c(=O)c2cc(OC)ccc2c2cc(C(O)(C(F)(F)F)C(F)(F)F)c(OC)c(OC)c21 [HA-727, 5-butyl-2-(1′,1′,1′,3′,3′,3′-hexafluoro-2′-hydroxypropan-2′-yl)-3,4,8-trimethoxy-phenanthridin-6(5H)-one]	6.8	1.8	
CCCCn1c(=O)c2cc(OC)ccc2c2cc(C(OCc3ccccc3)(C(F)(F)F)C(F)(F)F)c3c(c21)OCO3 [HA-758, 11-(2′-benzyloxy-1′,1′,1′,3′,3′,3′-hexafluoropropan-2′-yl)-4-butyl-7-methoxy-[1,3]-dioxolo[4,5-c]phenanthridin-5(4H)-one]	> 100	1.71	anti-HCV activity (in words) [3]: high degree of anti-HCV activity at non-cytotoxic concentrations; also recorded: high degree of anti-HCV activity
CCCCn1c(=O)c2cc(OC)c(OC)cc2c2cc(C(O)(C(F)(F)F)C(F)(F)F)ccc21 [KZ25, 5-butyl-2-(1′,1′,1′,3′,3′,3′-hexafluoro-2′-hydroxypropan-2′-yl)-8,9-dimethoxy-phenanthridin-6(5H)-one]	2.8	> 2.8	
CCCCn1c(=O)c2cc3c(cc2c2cc(C(O)(C(F)(F)F)C(F)(F)F)ccc21)OCO3 [KZ26, 5-butyl-2-(1′,1′,1′,3′,3′,3′-hexafluoro-2′-hydroxypropan-2′-yl)-[1,3]dioxolo[4,5-j]phenanthridin-6(5H)-one]	> 100	2.3	anti-HCV activity (in words) [3]: high degree of anti-HCV activity at non-cytotoxic concentrations
CCCCn1c(=O)c2c(OC)c(OC)ccc2c2cc(C(O)(C(F)(F)F)C(F)(F)F)ccc21 [KZ27, 5-butyl-2-(1′,1′,1′,3′,3′,3′-hexafluoro-2′-hydroxypropan-2′-yl)-7,8-dimethoxy-phenanthridin-6(5H)-one]	14.2	5.5	
CCCCn1c(=O)c2cc(OC)c(OC)c(OC)c2c2cc(C(O)(C(F)(F)F)C(F)(F)F)ccc21 [KZ28, 5-butyl-2-(1′,1′,1′,3′,3′,3′-hexafluoro-2′-hydroxypropan-2′-yl)-8,9,10-trimethoxy-phenanthridin-6(5H)-one]	9.4	8.3	
CCCCn1c(=O)c2ccccc2c2c(OC)c(C(OC)(C(F)(F)F)C(F)(F)F)cc(OC)c21 [KZ29, 5-butyl-2-(1′,1′,1′,3′,3′,3′-hexafluoro-2′-methoxypropan-2′-yl)-1,4-dimethoxy-phenanthridin-6(5H)-one]	> 100	30.4	
CCCCn1c(=O)c2cc(OC)ccc2c2c(OC)c(C(OC)(C(F)(F)F)C(F)(F)F)cc(OC)c21 [KZ30, 5-butyl-2-(1′,1′,1′,3′,3′,3′-hexafluoro-2′-methoxypropan-2′-yl)-1,4,8-trimethoxy-phenanthridin-6(5H)-one]	> 100	9.2	anti-HCV activity (in words) [3]: high degree of anti-HCV activity at non-cytotoxic concentrations
CCCCn1c(=O)c2c(OC)cccc2c2cc(C(O)(C(F)(F)F)C(F)(F)F)ccc21 [KZ31, 5-butyl-2-(1′,1′,1′,3′,3′,3′-hexafluoro-2′-hydroxypropan-2′-yl)-7-methoxy-phenanthridin-6(5H)-one]	12.6	10	
CCCCn1c(=O)c2ccc(OC)cc2c2cc(C(O)(C(F)(F)F)C(F)(F)F)ccc21 [KZ32, 5-butyl-2-(1′,1′,1′,3′,3′,3′-hexafluoro-2′-hydroxypropan-2′-yl)-9-methoxy-phenanthridin-6(5H)-one]	28.9	16.6	
CCCCn1c(=O)c2cccc(OC)c2c2cc(C(O)(C(F)(F)F)C(F)(F)F)ccc21 [KZ33, 5-butyl-2-(1′,1′,1′,3′,3′,3′-hexafluoro-2′-hydroxypropan-2′-yl)-10-methoxy-phenanthridin-6(5H)-one]	6.9	5	
CCCCn1c(=O)c2ccccc2c2c(O)c(C(O)(C(F)(F)F)C(F)(F)F)ccc21 [KZ35, 5-butyl-2-(1′,1′,1′,3′,3′,3′-hexafluoro-2′-hydroxypropan-2′-yl)-1-hydroxy-phenanthridin-6(5H)-one]	52.3	44	
CCCCn1c(=O)c2ccccc2c2cc(C(O)(C(F)(F)F)C(F)(F)F)c(OC)cc21 [KZ36, 5-butyl-2-(1′,1′,1′,3′,3′,3′-hexafluoro-2-hydroxypropan-2′-yl)-3-methoxy-phenanthridin-6(5H)-one]	5.7	2.2	
CCCCn1c(=O)c2ccccc2c2cc(C(OCc3ccccc3)(C(F)(F)F)C(F)(F)F)c(OC)cc21 [KZ37, 2-(2′-benzyloxy-1′,1′,1′,3′,3′,3′-hexafluoropropan-2′-yl)-5-butyl-3-methoxy-phenanthridin-6(5H)-one]	> 100	2.6	anti-HCV activity (in words) [3]: high degree of anti-HCV activity at non-cytotoxic concentrations; also recorded: high degree of anti-HCV activity
CCCCn1c(=O)c2c(OC)cc(OC)cc2c2cc(C(O)(C(F)(F)F)C(F)(F)F)ccc21 [KZ38, 5-butyl-2-(1′,1′,1′,3′,3′,3′-hexafluoro-2′-hydroxypropan-2′-yl)-7,9-dimethoxy-phenanthridin-6(5H)-one]	8.2	2.6	
CCCCn1c(=O)c2c(OC)c(OC)c(OC)cc2c2cc(C(O)(C(F)(F)F)C(F)(F)F)ccc21 [KZ39, 5-butyl-2-(1′,1′,1′,3′,3′,3′-hexafluoro-2′-hydroxypropan-2′-yl)-7,8,9-trimethoxy-phenanthridin-6(5H)-one]	2	> 2	
CCCCn1c(=O)c2ccccc2c2c(C(C)C)cccc21 [MN315-A, 5-butyl-1-isopropylphenanthridin-6(5H)-one]			HCV genomic RNA level [4]: 46.3%
CCCCn1c(=O)c2ccccc2c2ccc(C(C)C)cc21 [MN315-B, 5-butyl-3-isopropylphenanthridin-6(5H)-one]			HCV genomic RNA level [4]: 14.7%
